# Assay results from patent publication US20220117920A1, “N-Aryl Benzenesulfonamides as Protonophores for the Treatment of Cancers, Metabolic Diseases and Traumatic Brain Injury” (University of Kentucky Research Foundation, priority 2019, published 2022).
# Assays:
# AMPK = experiment: Western blot of AMPK (T172) and ACC (S79) phosphorylation in CRC cells; format: cell-based, human
# Procedure: Biochemistry. Western blotting: Cells were lysed in the appropriate volume of lysis buffer: 50 mM HEPES, 100 mM NaCl, 2 mM EDTA, 1% (v/v) glycerol, 50 mM NaF, 1 mM Na3VO4, 1% (v/v) Triton X-100, with protease inhibitors. The following antibodies were used: AMPK (Cell Signaling, 2532, Cell Signaling Technologies, Danver, Mass., USA), pAMPK (Cell Signaling, 2535), ACC (Cell Signaling, 3676), pACC (Cell Signaling, 11818), Actin (Sigma, A1978). Antibodies for Axin 2, c-Myc and Cyclin D1 have been described previously. ATP analysis: Cells growing in 12-well plates were treated with DMSO or inhibitors in DMSO solution and lysed by adding 1 mL boiling doubly distilled water. Supernatants were analyzed by luminescence using ATP Determination Kit (Invitrogen, A22066; Thermo Fisher Scientific, Waltham, Mass., USA).
# [1] = Gross-toxicity assay in mice; format: in vivo; conditions: intraperitoneal injections up to 15 mg/kg for 5-6 weeks
# Procedure: FIGS. 20A-D show graphs and images illustrating FH535 effect in vivo. (A) Mice body weight after FH535 treatment. C57BL/6 mice (n=5) were treated by intraperitoneal injection with 15 mg/Kg of FH535 or DMSO vehicle control every 4 days for 6 weeks. Mice were monitored before injections for signs of body weight loss, impaired mobility, labored breathing and body score based on the Ullman-Culleré MH, Foltz CJ method. (B-D) FH535 reduces tumor growth in vivo in a xenograft tumor model. Huh7 cell were injected subcutaneously on the right flank of athymic nude mice. FH535 (15 mg/Kg) or vehicle (DMSO) were administrated by intraperitoneal injection every other day when tumor size reached 100 mm^3. (B) Tumor growth was monitored every other day until day 10 of starting treatments when mice were euthanized according to the AVMA guidelines, *p<0.05 (n=5, each group); (C) Tumor weight of excised tumors after 10 day treatment with FH535 reduced the tumor weight in 42±8% compared to vehicle treatment, **p<0.001 (n=4, each group). (D) H&E and ki67 stainings from one representative tumor of each group treatment. Pictures were taken at 400× magnification.
# To validate further the in vivo anti-tumor effect of FH535, we performed a gross-toxicity assay in mice with FH535 doses ranging from 0 to 30 mg/kg. […] Next, we evaluated the in vivo anti-tumor activity of FH535 in a Huh7 tumor xenograft model. […]
# [2] = test system: purified mitochondria from mouse liver; experiment: Uncoupling assay (OCR) using purified mitochondria from mouse livers; format: biochemical; conditions: 5 μM/1 μM
# Procedure: All the steps were carried out at 4° C. or on ice. After mice were euthanized with CO2 followed by rapid decapitation, whole liver was quickly dissected out on a cold block and homogenized using a Teflon-glass dounce homogenizer containing isolation buffer (215 mM mannitol, 75 mM sucrose, 0.1% BSA, 20 mM HEPES, 1 mM EGTA, adjusted to pH 7.2 with KOH). The homogenate was transferred to a 2 mL-microcentrifuge tube and spun at 1,300×g for 3 min. The supernatant was transferred to a fresh 2 mL-microcentrifuge tube and spun at 13,000×g for 10 min. The supernatant was discarded, and the crude mitochondrial pellet was resuspended in a 1.5 mL-microcentrifuge tubes and pelleted again at 10,000×g for 10 min. The supernatant was discarded, and the mitochondrial pellets were resuspended in isolation buffer to obtain an approximate concentration ≥10 mg/mL of mitochondria. The absolute protein concentration was determined using a bicinchoninic acid (BCA) protein assay kit (Pierce, Cat #23,227) by recording absorbance at 560 nm on a Biotek Synergy HT plate reader (Winooski, Vt., USA).
# Mitochondrial Bioenergetics Measurements. Mitochondrial bioenergetic measurements were carried out using a Seahorse XFe96 Extracellular Flux Analyzer (Agilent Technologies, Santa Clara, Calif., USA) to measure oxygen consumption rate (OCR) during various states of respiration. The OCR were measured in the presence of different substrates, inhibitors and uncouplers of the electron transport chain using previous methods with slight modifications. The stocks used for the assays were 500 mM pyruvate, 250 mM malate, and 30 mM adenosine diphosphate (ADP), and 1 M succinate (pH for all was adjusted to 7.2). […] Stock solutions of FH535, Y3, FH535-M, and Y3-M were prepared at 5 mM in 100% DMSO. As per the instructions from XFe96 Extracellular Flux kit, the sensor cartridge was hydrated with water and kept at 37° C. overnight before the experiment. One hour before the assay was conducted, water was removed from assay plates and XF calibrant was added before re-incubation. The injection ports A to D of the sensor cartridge were loaded with 25 μL of different combinations of the above substrates/inhibitors/uncouplers as follows. Before loading, the stocks were diluted appropriately in the respiration buffer (RB) (125 mM KCl, 0.1% BSA, 20 mM HEPES, 2 mM MgCl2, and 2.5 mM KH2PO4; pH 7.2) to get the final concentrations in the respiration chamber of 5 μM pyruvate, 2.5 μM malate, 10 μM of succinate and 1 μM ADP (via Port A), 1 μM oligomycin A (via Port B), 4 μM FCCP or 5 μM/1 μM FH535 or 5 μM/1 μM Y3 or 5 μM/1 μM FH535-M or 5 μM/1 μM Y3-M (via Port C) and 0.1 μM antimycin A (via Port D) starting with the initial volume of 175 μL RB in the chamber and diluting it to 9×, 10×, 11× and 12× with every injection through ports A to D, respectively. Once loaded, the sensor cartridge was placed into the Seahorse XFe96 Flux Analyzer for automated calibration. Seahorse Standard XFe96 assay plates were used for loading mitochondria. Initially total mitochondria were diluted to 6 μg/30 μL in RB and 30 μL was loaded in each well resulting in 6 μg mitochondria/well. The assay plates were centrifuged at 3,000 rpm for 4 min at 4° C. to adhere liver mitochondria at the bottom of the wells. After centrifugation, 145 μL RB (pre-incubated to 37° C.) was added without disturbing the mitochondrial layer to obtain a final volume of 175 μL per well. […]
# [3] = test system: Wnt/β-catenin target genes; experiment: Expression of downstream β-catenin targets in Huh7 cells (western blot, RT-qPCR); format: cell-based, human; conditions: Huh7, 36 h
# Procedure: Primary antibodies are described in Table 1.
# Total RNA was extracted with miRNeasy mini kit (Qiagen, Germany), and the corresponding cDNA was produced using iScript cDNA synthesis kit (BioRad, USA) from 1 μg of total RNA. Real time quantitative PCR (RT-qPCR) was performed using SsoAdvanced Universal SYBR Green supermix (BioRad, USA) with specific primers: p62 (SQSTM1: 5′-[…]-3′ (SEQ ID NO: 1) and 5′-[…]-3′ (SEQ ID NO: 2)); c-MYC (cMYC: 5′-[…]-3′ (SEQ ID NO: 3) and 5′-[…]-3′ (SEQ ID NO: 4)), Survivin (BIRC5, 5′-[…]-3′ (SEQ ID NO: 5) and 5′-[…]-3′ (SEQ ID NO: 6)), AXIN 2 (AXIN2: 5′-[…]-3′ (SEQ ID NO: 7) and 5′-[…]-3′ (SEQ ID NO: 8)), Cyclin D1 (5′-CCND1: […]-3′ (SEQ ID NO: 9) and 5′-[…]-3′ (SEQ ID NO: 10)), and b2-microglobulin (B2M: 5′-[…]-3′ (SEQ ID NO: 11) and 5′-[…]-3′ (SEQ ID NO: 12)). Transcript levels were normalized to β-actin or […] level as indicated using the ΔΔCt method.
# DLD-1 cells = experiment: Seahorse uncoupling assay (OCR) in DLD-1 cells; format: cell-based, human; conditions: testing compound 3 μM
# Procedure: Seahorse assay. Approximately 3×10^4 cells were seeded in XF96 Cell Culture microplate (80 μL of 3.75×10^5 cells/mL) for all experiments. On the next day, cell culture media were replaced with either Seahorse XF modified media with 25 mM glucose and 1 mM pyruvate. After media exchange, cells were treated with 1 μM of oligomycin A, 1.0 μM FCCP and mixture of 1.0 μM of rotenone and 1.0 μM of antimycin A in standard mitochondrial stress test conditions. To determine the uncoupler effects, FCCP was replaced with an equal volume of DMSO, or a compound to be tested in DMSO solution. ATP production rate was analyzed using Agilent Seahorse XF Real-Time ATP Rate Assay.
# Wnt signaling = experiment: Wnt reporter assay, stable HEK293T cell line containing TOPFlash reporter, LiCl-activated; format: cell-based, human; conditions: 3 μM
# Source text: To identify novel Wnt regulators by high throughput screening, a stable HEK293T cell line containing the TOPFlash reporter was established. To identify Wnt inhibitors that targeted molecular events downstream of β-catenin, we treated these cells with lithium chloride to inhibit GSK3 and to stabilize β-catenin. […] We also validated the results by transient transfection of Super 8× TOPFlash or 8× FOPFlash into HEK293T cells. […] Since the results from the stable and transient transfection are compatible, we used stable cell lines for all of the other experiments.
# Reporter assay. Wnt reporter assay and cell staining assay have been described previously. We subcloned Super 8×TOPFlash (provided by Professor Randall Moon, University of Washington) into the pGL4.83 [hRlucP/Puro] Vector and transfected it into HEK293T cells. A stable HEK293T cell line containing the TOPFlash reporter was established using puromycin selection. To screen Wnt inhibitors that block the downstream signaling transduction pathway of β-catenin, we treated the reporter cells with 25 mM LiCl to stabilize β-catenin and activate Wnt signaling. The potential Wnt inhibitors identified from screening were validated by transfecting TOPFlash or FOPFlash plus control renilla reporters into HEK293T cells, and then treating the cells with DMSO or testing compounds in DMSO solution. The Wnt signaling was activated by LiCl or Wnt3A treatment.
compound,measurement,setting,value
"Cc1cc([N+](=O)[O-])ccc1NS(=O)(=O)c1cc(Cl)ccc1Cl [FH535, 2,5-dichloro-N-(2-methyl-4-nitrophenyl)benzenesulfonamide]",time to AMPK activation after treatment,AMPK,≤ 15 min
same,ACC (S79 phosphorylation),AMPK; 3 μM,induced AMPK phosphorylation and ACC phosphorylation
same,AMPK activity (T172 phosphorylation),AMPK; 3 μM,activated AMPK
same,"signs of body distress or toxicity (weight loss, ambulatory ability, respiration, dehydration)",[1],did not induce major signs of body distress or toxicity
same,uncoupling: OCR blocked by oligomycin,[2],increased OCR in dose-dependent manner
same,expression of downstream Wnt/β-catenin target genes,[3],reduced expression of endogenous downstream β-catenin target genes
same,uncoupling: OCR inhibited by oligomycin,DLD-1 cells,increased OCR inhibited by oligomycin
same,inhibition of Wnt signaling,Wnt signaling,inhibited Wnt signaling
